From the NIST ThermoML archive (doi:10.1021/je201211f)
Numbers after ± are expanded uncertainties.

Assays:
[1] = refractive index (Na D-line) (dimensionless); xn = mol fraction of the nth substance listed; conditions: 298.15 K, 101 kPa, Liquid
[2] = xn = mol fraction of the nth substance listed; conditions: 101 kPa, Liquid; for mass density: Vibrating tube method; for viscosity: Capillary tube (Ostwald / Ubbelohde) method

ClC=C(Cl)Cl [trichloroethene] + Cc1cccc(C)c1
[1]
Conditions	refractive index
x1 = 0.085	1.4932 ± 0.0007
x1 = 0.1622	1.4922 ± 0.0007
x1 = 0.2415	1.4908 ± 0.0007
x1 = 0.3204	1.4894 ± 0.0007
x1 = 0.3935	1.488 ± 0.0007
x1 = 0.496	1.4859 ± 0.0007
x1 = 0.5613	1.4845 ± 0.0007
x1 = 0.6429	1.4825 ± 0.0007
x1 = 0.7226	1.4807 ± 0.0007
x1 = 0.8061	1.4789 ± 0.0007
x1 = 0.8832	1.4773 ± 0.0007
x1 = 0.9596	1.4756 ± 0.0007

[2]
Conditions	mass density, 293.15 K [kg/m3]	mass density, 298.15 K [kg/m3]	mass density, 303.15 K [kg/m3]	viscosity, 298.15 K [mPa·s]
x1 = 0.0494	886.2 ± 0.35	881.77 ± 0.35	877.34 ± 0.35	–
x1 = 0.0768	–	–	–	0.5895 ± 0.0077
x1 = 0.0796	899.93 ± 0.35	895.43 ± 0.35	890.91 ± 0.34	–
x1 = 0.1465	–	–	–	0.5893 ± 0.0076
x1 = 0.1531	934.34 ± 0.36	929.62 ± 0.35	924.88 ± 0.34	–
x1 = 0.23	971.87 ± 0.36	966.92 ± 0.34	961.95 ± 0.33	–
x1 = 0.2415	–	–	–	0.5895 ± 0.0076
x1 = 0.3097	1012.52 ± 0.37	1007.32 ± 0.35	1002.09 ± 0.33	–
x1 = 0.3204	–	–	–	0.5897 ± 0.0075
x1 = 0.3935	–	–	–	0.5893 ± 0.0075
x1 = 0.4065	1064.66 ± 0.39	1059.1 ± 0.36	1053.53 ± 0.34	–
x1 = 0.4841	1108.6 ± 0.4	1102.78 ± 0.38	1096.93 ± 0.36	–
x1 = 0.496	–	–	–	0.5883 ± 0.0075
x1 = 0.5561	1151.33 ± 0.42	1145.2 ± 0.4	1139.05 ± 0.37	–
x1 = 0.5613	–	–	–	0.5875 ± 0.0074
x1 = 0.6423	–	–	–	0.5863 ± 0.0074
x1 = 0.6453	1206.86 ± 0.44	1200.35 ± 0.41	1193.84 ± 0.39	–
x1 = 0.709	1248.6 ± 0.45	1241.79 ± 0.43	1234.95 ± 0.41	–
x1 = 0.7204	–	–	–	0.5851 ± 0.0074
x1 = 0.7639	–	–	–	0.5844 ± 0.0073
x1 = 0.7989	1310.61 ± 0.49	1303.35 ± 0.45	1296.06 ± 0.42	–
x1 = 0.8774	–	–	–	0.5823 ± 0.0073
x1 = 0.8937	1380.16 ± 0.52	1372.41 ± 0.48	1364.61 ± 0.44	–
x1 = 0.9596	–	–	–	0.5808 ± 0.0073
x1 = 0.974	1442.88 ± 0.5	1434.66 ± 0.5	1426.38 ± 0.5	–

ClC=C(Cl)Cl [trichloroethene] + Cc1ccccc1C
[1]
Conditions	refractive index
x1 = 0.0721	1.501 ± 0.0007
x1 = 0.1615	1.499 ± 0.0007
x1 = 0.2437	1.4973 ± 0.0007
x1 = 0.3075	1.4958 ± 0.0007
x1 = 0.3957	1.4936 ± 0.0007
x1 = 0.4824	1.4917 ± 0.0007
x1 = 0.5643	1.4896 ± 0.0007
x1 = 0.6346	1.4875 ± 0.0007
x1 = 0.7158	1.4847 ± 0.0007
x1 = 0.806	1.4813 ± 0.0007
x1 = 0.8818	1.4788 ± 0.0007
x1 = 0.9637	1.4762 ± 0.0007

[2]
Conditions	mass density, 293.15 K [kg/m3]	mass density, 298.15 K [kg/m3]	mass density, 303.15 K [kg/m3]	viscosity, 298.15 K [mPa·s]
x1 = 0.0721	–	–	–	0.7421 ± 0.0084
x1 = 0.088	919.03 ± 0.34	914.58 ± 0.34	910.12 ± 0.34	–
x1 = 0.1511	948.33 ± 0.35	943.7 ± 0.34	939.06 ± 0.33	–
x1 = 0.1615	–	–	–	0.725 ± 0.0083
x1 = 0.2426	992.67 ± 0.36	987.75 ± 0.34	982.82 ± 0.33	–
x1 = 0.2437	–	–	–	0.7095 ± 0.0082
x1 = 0.3181	–	–	–	0.6959 ± 0.008
x1 = 0.3249	1034.35 ± 0.37	1029.15 ± 0.35	1023.95 ± 0.34	–
x1 = 0.3895	1068.4 ± 0.4	1062.98 ± 0.36	1057.54 ± 0.35	–
x1 = 0.3957	–	–	–	0.6808 ± 0.0079
x1 = 0.4775	1116.88 ± 0.4	1111.15 ± 0.38	1105.38 ± 0.36	–
x1 = 0.4824	–	–	–	0.6644 ± 0.0078
x1 = 0.5495	1158.43 ± 0.41	1152.41 ± 0.39	1146.34 ± 0.38	–
x1 = 0.558	–	–	–	0.6498 ± 0.0077
x1 = 0.6346	–	–	–	0.6363 ± 0.0076
x1 = 0.6384	1212.22 ± 0.44	1205.79 ± 0.41	1199.32 ± 0.39	–
x1 = 0.7132	1259.66 ± 0.45	1252.89 ± 0.43	1246.08 ± 0.41	–
x1 = 0.7158	–	–	–	0.6224 ± 0.0075
x1 = 0.79	1310.86 ± 0.48	1303.68 ± 0.45	1296.47 ± 0.43	–
x1 = 0.802	–	–	–	0.6081 ± 0.0074
x1 = 0.8776	1372.25 ± 0.5	1364.6 ± 0.47	1356.92 ± 0.44	–
x1 = 0.8818	–	–	–	0.595 ± 0.0073
x1 = 0.9559	–	–	–	0.5836 ± 0.0073
x1 = 0.9583	1431.95 ± 0.5	1423.79 ± 0.5	1415.62 ± 0.49	–
